Experimental data from patent US8324245B2, “Quinoline derivative and quinazoline derivative inhibiting self-phosphorylation of hepatocytus proliferator receptor, and medicinal composition containing the same” (Kyowa Hakko Kirin Co., Ltd., priority 2001, dated 2012).

molecular target: T1, met (HGF receptor) in human gastric cancer cells MKN45 (Homo sapiens, UniProt P08581); assay: Inhibitory activity against met-autophosphorylation using ELISA method (2), MKN45 cells, HGF-independent; type: cell-based
T1 construct: endogenous in cells; host or cells: MKN45 human gastric cancer cells
In short: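 Met autophosphorylation was read by sandwich ELISA: phosphotyrosine capture (PY20), anti-HGF receptor detection, peroxidase read-out at 450 nm. Lysates came from MKN45 gastric cancer cells kept in 0.1% FCS RPMI and treated 1 h at 37 °C with test compound, with no added HGF.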

T1 sequence (P08581 25-1390): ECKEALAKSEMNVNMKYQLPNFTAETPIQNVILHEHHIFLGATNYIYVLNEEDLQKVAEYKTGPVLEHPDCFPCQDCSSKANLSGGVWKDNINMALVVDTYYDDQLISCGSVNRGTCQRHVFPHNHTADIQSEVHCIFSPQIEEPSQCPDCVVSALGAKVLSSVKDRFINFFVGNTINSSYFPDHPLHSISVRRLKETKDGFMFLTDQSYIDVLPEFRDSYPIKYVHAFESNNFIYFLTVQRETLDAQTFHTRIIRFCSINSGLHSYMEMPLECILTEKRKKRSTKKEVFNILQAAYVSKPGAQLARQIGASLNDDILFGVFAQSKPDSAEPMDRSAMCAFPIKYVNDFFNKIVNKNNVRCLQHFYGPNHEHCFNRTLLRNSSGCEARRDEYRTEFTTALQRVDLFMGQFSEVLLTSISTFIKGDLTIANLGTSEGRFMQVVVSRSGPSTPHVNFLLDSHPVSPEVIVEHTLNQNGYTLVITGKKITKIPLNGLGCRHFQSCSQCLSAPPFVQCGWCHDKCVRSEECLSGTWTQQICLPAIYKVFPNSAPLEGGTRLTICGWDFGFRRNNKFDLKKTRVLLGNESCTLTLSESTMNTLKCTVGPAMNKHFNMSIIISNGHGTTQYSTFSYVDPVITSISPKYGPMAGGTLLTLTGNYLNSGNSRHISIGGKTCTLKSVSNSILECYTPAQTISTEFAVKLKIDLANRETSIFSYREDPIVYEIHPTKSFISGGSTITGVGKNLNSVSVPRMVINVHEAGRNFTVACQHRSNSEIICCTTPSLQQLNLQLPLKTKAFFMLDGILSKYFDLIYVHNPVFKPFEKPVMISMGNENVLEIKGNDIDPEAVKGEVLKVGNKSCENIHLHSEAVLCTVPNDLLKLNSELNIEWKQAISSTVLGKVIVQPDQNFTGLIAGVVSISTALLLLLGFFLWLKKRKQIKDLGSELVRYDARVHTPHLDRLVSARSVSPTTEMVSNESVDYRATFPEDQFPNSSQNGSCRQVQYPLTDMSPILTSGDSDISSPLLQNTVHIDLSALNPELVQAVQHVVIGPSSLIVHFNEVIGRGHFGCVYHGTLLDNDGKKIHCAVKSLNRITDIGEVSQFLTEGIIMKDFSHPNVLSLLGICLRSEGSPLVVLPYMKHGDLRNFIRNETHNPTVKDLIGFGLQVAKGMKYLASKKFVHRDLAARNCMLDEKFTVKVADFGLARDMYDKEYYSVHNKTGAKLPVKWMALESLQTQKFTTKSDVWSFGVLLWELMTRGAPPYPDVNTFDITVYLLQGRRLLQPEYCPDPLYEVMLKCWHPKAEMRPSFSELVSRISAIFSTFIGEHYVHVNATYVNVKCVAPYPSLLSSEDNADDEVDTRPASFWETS

SMILES | IC50
COc1cc2nccc(Oc3ccc(NC(=S)NC(=O)Cc4cccc(F)c4)cc3Cl)c2cc1OC [Example 76, 1-[3-chloro-4-(6,7-dimethoxyquinolin-4-yloxy)-phenyl]-3-[2-(3-fluorophenyl)acetyl]thiourea] | 51.7 nM
COc1ccccc1NC(=O)NC(=O)Nc1ccc(Oc2ccnc3cc(OC)c(OC)cc23)cc1 [Example 266, N-(2-methoxyphenyl)-({[4-(6,7-dimethoxy-quinolin-4-yloxy)anilino]carbonyl}amino)methanamide] | 181 nM
COc1cc2c(Oc3ccc(NC(=O)NC(=O)Cc4ccccc4)cc3F)ccnc2cc1OCCN1CCC(CO)CC1 [Example 283] | 14.6 nM
COc1cc2nccc(Oc3ccc(NC(=S)NC(=O)Cc4ccccc4C)cc3)c2cc1OC [Example 79, 1-[4-(6,7-dimethoxyquinolin-4-yloxy)phenyl]-3-(2-o-tolylacetyl)thiourea] | 145 nM
COc1cc2nccc(Oc3ccc(NC(=S)NC(=O)Cc4cccc(C)c4)cc3Cl)c2cc1OC [Example 78, 1-[3-chloro-4-(6,7-dimethoxyquinolin-4-yloxy)-phenyl]-3-(2-m-tolylacetyl)thiourea] | 66.3 nM
COc1cc2nccc(Oc3ccc(NC(=O)NC(=O)CSC4CCCC4)cc3)c2cc1OC [Example 7, 1-(2-cyclopentylsulfanylacetyl)-3-[4-(6,7-dimethoxyquinolin-4-yloxy)phenyl]urea] | 292 nM
COc1cc2nccc(Oc3ccc(NC(=O)NC(=O)CN4CCSCC4)cc3Cl)c2cc1OC [Example 131, 1-[3-chloro-4-(6,7-dimethoxyquinolin-4-yloxy)phenyl]-3-(2-thiomorpholin-4-ylacetyl)urea] | 2370 nM
COCCC(=O)NC(=S)Nc1ccc(Oc2ccnc3cc(OC)c(OC)cc23)c(Cl)c1 [Example 180, 1-[3-chloro-4-(6,7-dimethoxyquinolin-4-yloxy)phenyl]-3-(3-methoxy-propionyl)thiourea] | 2560 nM
COc1cc2nccc(Oc3ccc(NC(=S)NC(=O)C4C[C@@H]4c4ccccc4)cc3)c2cc1OC (stereo in doubt) [Example 150, 1-[4-(6,7-dimethoxyquinolin-4-yloxy)phenyl]-3-(2-phenylcyclopropanecarbonyl)thiourea] | 1280 nM
COc1cc2nccc(Oc3ccc(NC(=O)NC(=O)CSc4nccn4C)cc3Cl)c2cc1OC [Example 130, 1-[3-chloro-4-(6,7-dimethoxyquinolin-4-yloxy)phenyl]-3-[2-(1-methyl-1H-imidazol-2-ylsulfanyl)-acetyl]urea] | 2160 nM
COc1cc2nccc(Oc3ccc(NC(=S)NC(=O)CC4C5CCC4CC5)c(F)c3)c2cc1OC (centres unmarked) [Example 89] | 52.6 nM
CCN(CC)CCOc1cc2nccc(Oc3ccc(NC(=S)NC(=O)Cc4ccccc4)cc3F)c2cc1OC [Example 272, 1-{4-[7-(2-Diethylamine-ethoxy)-6-methoxy-quinolin-4-yloxy]-3-fluoro-phenyl}-3-phenylacetyl-thiourea] | 33.6 nM
COc1cc2nccc(Oc3ccc(NC(=O)NC(=O)Cc4ccc(F)cc4)cc3F)c2cc1OC [Example 23, 1-[4-(6,7-dimethoxyquinolin-4-yloxy)-3-fluoro-phenyl]-3-[2-(4-fluorophenyl)acetyl]urea] | 26.3 nM
COc1cc2nccc(Oc3ccc(NC(=S)NC(=O)Cc4ccccc4F)c(F)c3)c2cc1OC [Example 80, 1-[4-(6,7-dimethoxyquinolin-4-yloxy)-2-fluoro-phenyl]-3-[2-(2-fluorophenyl)acetyl]thiourea] | 30.2 nM
COc1cc2c(Oc3ccc(NC(=S)NC(=O)Cc4ccccc4Cl)cc3F)ccnc2cc1OCC(O)CN1CCCC1 (centres unmarked) [Example 317, 1-[2-(2-Chloro-phenyl)-acetyl]-3-{3-fluoro-4-[7-(2-hydroxy-3-pyrrolidin-1-yl-propoxy)-6-methoxy-quinolin-4-yloxy]-phenyl}-thiourea] | 42.2 nM
COc1cc2nccc(Oc3ccc(NC(=O)NC(=O)Nc4ccc(C)cn4)cc3)c2cc1OC [Example 235, N-(5-methyl-2-pyridyl)-({[4-(6,7-dimethoxy-quinolin-4-yloxy)anilino]carbonyl}amino)methanamide] | 215 nM
COc1cc2c(Oc3ccc(NC(=S)NC(=O)Cc4cccc(Cl)c4)cc3F)ccnc2cc1OCC(O)CN1CCCCC1 (centres unmarked) [Example 321, 1-[2-(3-Chloro-phenyl)-acetyl]-3-{3-fluoro-4-[7-(2-hydroxy-3-piperidin-1-yl-propoxy)-6-methoxy-quinolin-4-yloxy]-phenyl}-thiourea] | 125 nM
COc1cc2nccc(Oc3ccc(NC(=O)NC(=O)Nc4ccccc4-n4cccc4)cc3)c2cc1OC [Example 259, N-[2-(1H-1-pyrrolyl)phenyl]-({[4-(6,7-dimethoxyquinolin-4-yloxy)anilino]carbonyl}amino)-methanamide] | 614 nM
COc1cc2nccc(Oc3ccc(NC(=S)NC(=O)Cc4cccc(C(F)(F)F)c4)c(F)c3)c2cc1OC [Example 202, 1-[4-(6,7-dimethoxyquinolin-4-yloxy)-2-fluorophenyl]-3-[2-(3-trifluoromethylphenyl)acetyl]-thiourea] | 642 nM
COc1cc2nccc(Oc3ccc(NC(=O)C(C)C(=O)Nc4ccc(F)cc4F)cc3)c2cc1OC (centres unmarked) [Example 15, N-(2,4-difluorophenyl)-N′-[4-(6,7-dimethoxy-quinolin-4-yloxy)phenyl]-2-methylmalonamide] | 302 nM
COc1cc2nccc(Oc3ccc(NC(=S)NC(=O)Cc4ccccc4Cl)cc3Cl)c2cc1OC [Example 183, 1-[3-chloro-4-(6,7-dimethoxyquinolin-4-yloxy)phenyl]-3-[2-(2-chlorophenyl)acetyl]thiourea] | 224 nM

Further molecules by falling IC50, results first:

IC50 | SMILES
1580 nM | COc1cc2nccc(Oc3ccc(NC(=O)NC(=O)Nc4cccc(C#N)c4)cc3)c2cc1OC [Example 239, N-(3-cyanophenyl)-({[4-(6,7-dimethoxy-quinolin-4-yloxy)anilino]carbonyl}amino)-methanamide]
1480 nM | CCCCC(=O)NC(=O)Nc1ccc(Oc2ccnc3cc(OC)c(OC)cc23)c(Cl)c1 [Example 109, 1-[3-chloro-4-(6,7-dimethoxyquinolin-4-yloxy)phenyl]-3-pentanoylurea]
1470 nM | COc1cc2nccc(Oc3ccc(NC(=O)NC(=O)Nc4ccnn4C)cc3)c2cc1OC [Example 237, N-(1-methyl-1H-5-pyrazolyl)-({[4-(6,7-dimethoxyquinolin-4-yloxy)anilino]carbonyl}amino)-methanamide]
1210 nM | COc1cc2nccc(Oc3ccc(NC(=S)NC(=O)c4ccccc4Br)cc3F)c2cc1OC [Example 146, 1-(2-bromobenzoyl)-3-[4-(6,7-dimethoxy-quinolin-4-yloxy)-3-fluorophenyl]thiourea]
364 nM | COc1cc2nccc(Oc3ccc(NC(=S)NC(=O)c4cccc(C(F)(F)F)c4)cc3)c2cc1OC [Example 145, 1-[4-(6,7-dimethoxyquinolin-4-yloxy)phenyl]-3-(3-trifluoromethyl-benzoyl)thiourea]
267 nM | COc1cc2nccc(Oc3ccc(NC(=S)NC(=O)CCCC(C)C)cc3)c2cc1OC [Example 177, 1-[4-(6,7-dimethoxyquinolin-4-yloxy)phenyl]-3-(5-methyl-hexanoyl)thiourea]
265 nM | COc1cc2nccc(Oc3ccc(NC(=S)NC(=O)Cc4c(F)ccc(F)c4F)c(F)c3)c2cc1OC [Example 205, 1-[4-(6,7-dimethoxyquinolin-4-yloxy)-2-fluorophenyl]-3-[2-(2,3,6-trifluorophenyl)acetyl]-thiourea]
259 nM | COc1cc2nccc(Oc3ccc(NC(=O)NC(=O)Nc4c(F)cccc4F)cc3)c2cc1OC [Example 265, N-(2,6-difluorophenyl)-({[4-(6,7-dimethoxy-quinolin-4-yloxy)anilino]carbonyl}amino)methanamide]
229 nM | COc1cc2nccc(Oc3ccc(NC(=O)NC(=O)Cc4ccc(F)c(F)c4)c(F)c3)c2cc1OC [Example 140, 1-[2-(3,4-difluorophenyl)acetyl]-3-[4-(6,7-dimethoxyquinolin-4-yloxy)-2-fluorophenyl]urea]
224 nM | COc1cc2nccc(Oc3ccc(NC(=S)NC(=O)Cc4ccc(C)cc4)cc3F)c2cc1OC [Example 190, 1-[4-(6,7-dimethoxyquinolin-4-yloxy)-3-fluorophenyl]-3-(2-p-tolylacetyl)thiourea]
210 nM | COc1cc2nccc(Oc3ccc(NC(=S)NC(=O)Cc4ccccc4)c(C)c3)c2cc1OC [Example 162, 1-[4-(6,7-dimethoxyquinolin-4-yloxy)-2-methylphenyl]-3-phenylacetylthiourea]
150 nM | COc1cc2nccc(Oc3ccc(NC(=O)NC(=O)Cc4ccccc4)cc3Cl)c2cc1OC [Example 18, 1-[3-chloro-4-(6,7-dimethoxyquinolin-4-yloxy)-phenyl]-3-phenylacetylurea]
141 nM | COc1cc2c(Oc3ccc(NC(=O)NC(=O)Cc4ccccc4)cc3F)ccnc2cc1OCCN1CCCCC1 [Example 13, 1-{3-fluoro-4-[6-methoxy-7-(2-piperidin-1-yl-ethoxy)quinolin-4-yloxy]phenyl}-3-phenylacetylurea]
140 nM | COc1cc2nccc(Oc3ccc(NC(=S)NC(=O)c4cccc5ccccc45)cc3)c2cc1OC [Example 56, 1-[4-(6,7-dimethoxyquinolin-4-yloxy)phenyl]-3-(naphthalene-1-carbonyl)thiourea]
58.4 nM | COc1cc2nccc(Oc3ccc(NC(=O)NC(=O)Cc4cccc(F)c4)cc3F)c2cc1OC [Example 37, 1-[4-(6,7-dimethoxyquinolin-4-yloxy)-3-fluoro-phenyl]-3-[2-(3-fluorophenyl)acetyl]urea]
48.8 nM | COc1cc2nccc(Oc3ccc(NC(=S)NC(=O)Cc4ccsc4)cc3F)c2cc1OC [Example 85, 1-[4-(6,7-dimethoxyquinolin-4-yloxy)-3-fluoro-phenyl]-3-(2-thiophen-3-ylacetyl)thiourea]
21.4 nM | COc1cc2c(Oc3ccc(NC(=O)NC(=O)Cc4ccccc4)cc3F)ccnc2cc1OCCCN1CCC(CO)CC1 [Example 308, 1-(3-Fluoro-4-{7-[3-(4-hydroxymethyl-piperidin-1-yl)-propoxy]-6-methoxy-quinolin-4-yloxy}-phenyl)-3-phenylacetyl-urea]
